Experimental findings from the OPERA property sets (Mansouri et al. 2018) are described below.

The structures appear in SMILES notation. Where a SMILES comes first, the peptide text is derived from it.

What is called logP is the decadic logarithm of the partition coefficient of the neutral form, usually between octanol and water. High values mean a more lipophilic compound, low ones a more hydrophilic compound. In turn, `CC#CC(O)c1c(C)nc2c3c(c(C(=O)N(C)C)cn12)CCC(c1ccccc1)O3` (stereo unspecified) yielded a logP of 2.7.
As for `O=C(NCCCCCOCCCN1CCOCC1)NC12CC3CC(CC(C3)C1)C2`, the logP worked out at 2.7.
`COC(=O)Sc1ncc(C=C(C(=O)OC)C(=O)OC)n1C`: the logP was determined as 0.49.
As to `CCC(C)C(NC(=O)C(N)Cc1ccc(O)cc1)C(=O)NC(CC(C)C)C(=O)NCC(=O)O` (stereo unspecified) (H-YILG-OH; configuration not given here), the logP was -1.49.
In the case of `S=C=NCCCCCCCCCCc1ccccc1`, the logP was found to be 6.82.
On to `CCCCCNc1ncnc2nc[nH]c12`, for which the logP is 2.58.
`CC(C)C(NC(=O)C(N)Cc1ccccc1)C(=O)NC(Cc1ccc(O)cc1)C(=O)NC(Cc1ccccc1)C(=O)O` (stereo unspecified) (H-FVYF-OH; configuration not given here) came in with a logP of -0.32.
In the case of `Clc1cc(Cl)c(-c2c(Cl)ccc(Cl)c2Cl)c(Cl)c1`, the logP was 6.75.
In the case of `OC(CNCCc1ccccc1)CON=C(C1CC1)C1CC1` (stereo unspecified) it was 2.44; in that of `Brc1ccc2ccc3c(Br)ccc4ccc1c2c43`, 6.69; in that of `NC1=NCC(CN2CCN(c3ccc([N+](=O)[O-])cc3)CC2)O1` (stereo unspecified), 1.23.
In the case of `Cc1cccn2c1nc1ccc(N)nc12` it was 1.75.
In the case of `O=C(O)c1cc(O)c2ccc(Cl)cc2n1` it was 1.05.
As for `CCCCN1CCCC1CNC(=O)c1cc(S(N)(=O)=O)cc2c1OC(C)C2` (stereo unspecified), the lipophilicity (logP) stood at 2.8.
`CC(=NNC(=O)c1ccncc1)c1cnccn1`: the logP turned out to be 1.2.
For `CCC(C)C(N)C(=O)NC(C)C(=O)NC(Cc1ccc(O)cc1)C(=O)NC(Cc1c[nH]c2ccccc12)C(=O)NCC(=O)O` (stereo unspecified) (H-IAYWG-OH; configuration not given here), the logP was -1.47.
Turning to `CCOC(=O)C1=C(C)NC(C)=C(C(=O)OC)C1c1cc(OC)cc(OC)c1` (stereo unspecified), the logP came to 4.08.
On to `Cc1c(O)c(=O)ccn1CCCOC(=O)c1cccnc1`, for which the logP is -0.25.
For `CC(=O)OCOC(=O)C(C)c1cccc(C(=O)c2ccccc2)c1` (stereo unspecified), the logP amounted to 3.4.
`O=C1C=C(N2CCCCC2)CN1c1ccc(Cl)cc1` yielded a logP of 3.
`CC(N)C(=O)NCC(=O)NC(Cc1ccccc1)C(=O)NC(C(=O)NC(Cc1ccccc1)C(=O)O)C(C)C` (stereo unspecified) (H-AGFVF-OH; configuration not given here) returned a logP of -1.1.
Turning to `COC(=O)c1ccc2ccc3cccc4ccc1c2c34`, the logP was determined as 4.73.
Consider `CCC(C)C(NC(=O)C(C)NC(=O)C(CC(C)C)NC(=O)C(N)CO)C(=O)NC(C(=O)O)C(C)C` (stereo unspecified) (H-SLAIV-OH; configuration not given here), for which the logP is -1.94.
`CC1CC(N)CN1c1cc2c(cc1F)c(=O)c(C(=O)O)cn2-c1ccc(F)cc1F` (stereo unspecified): the logP amounted to 0.09.
In the case of `COc1ccc(C2=NC(C)(C(=O)O)CS2)c(O)c1OC` (stereo unspecified) it was 1.4.
`CCCCN(CCCC)C1CCc2c(OC)cccc2C1C` (stereo unspecified) registered a logP of 5.61.
`O=C(NS(=O)(=O)c1cnccc1NC1CCCCCC1)N1CCCCC1`: the logP amounted to 4.14.
`COC(=O)C(Cc1ccccc1)(Cc1ccccc1)S(=O)(=O)c1ccc([N+](=O)[O-])cc1` registered a logP of 4.46.
Compound `COC(=O)c1c(Oc2nc(OC)cc(OC)n2)cccc1C(C)=NOCC=C(Cl)Cl` showed a logP of 4.23.
The same measure for `N#Cc1cccc(Cc2ncccn2)c1`: 1.46.
`Cc1ccc(CO)c(C=NNC(=O)c2ccc(N)cc2)c1O` gave a logP of 2.16.
In turn, `NC(=O)c1cccc(Cn2cnc3ccccc32)c1` gave a logP of 1.7.
The same measure for `COc1ccc(C2Cc3c(cccc3C(F)(F)F)N(CCN(C)C)C(=O)C2OC(C)=O)cc1` (stereo unspecified): 4.9; for `CC(C)CC(N)C(=O)NC(CC(C)C)C(=O)NC(C(=O)NC(Cc1ccccc1)C(=O)O)C(C)C` (stereo unspecified) (H-LLVF-OH; configuration not given here): -0.25; for `COC(=O)C(C)=CC1C(C(=O)OCc2cccc(Oc3ccccc3)c2)C1(C)C` (stereo unspecified): 6.48.
Compound `COc1cccc2c1OP(=O)(OCC1C=CC(n3cc(C)c(=O)[nH]c3=O)O1)OC2` (stereo unspecified) came in with a logP of 0.15.
In the case of `C=CCNc1ncnc2nc[nH]c12`, the logP stood at 1.09.
The same measure for `CCCCCCNC(=O)N1C(=O)N(C)CC1O` (stereo unspecified): 2.39; for `COC1=CC(=O)c2c(c(COC(N)=O)c3n2CCC3OC(C)=O)C1=O` (stereo unspecified): 0.72.
As for `Cc1oc2nc3oc(=O)ccc3cc2c1C`, the logP stood at 1.97.
On to `Cc1ccnc2c1NC(=O)c1cccnc1N2C1CC1`, for which the logP was determined as 1.81.
In the case of `C[N+](C)([O-])C(c1ccccc1)c1ccccc1` it was 0.82; in that of `COc1ccc(CCNCC(O)COc2ccc(-c3nc(Br)c[nH]3)cc2)cc1OC` (stereo unspecified), 3.2; in that of `CCc1c(O)c(=O)ccn1CCCO`, -0.44.
`CC(=O)OCCOC(=O)C(C)c1cccc(C(=O)c2ccccc2)c1` (stereo unspecified) registered a logP of 3.1.
In the case of `O=C1N=C(N2CCOCC2)CN1Cc1ccc(Br)cc1` it was 1.4.
In turn, `CCC(C)C(NC(=O)C(N)CC(C)C)C(=O)NC(C(=O)O)C(C)O` (stereo not drawn) (H-Leu-Ile-Thr-OH; configuration not given here) yielded a logP of -2.14.
`O=C(O)Cc1cc(O)ccc1Nc1c(Cl)cccc1Cl` had a logP of 3.94.
`O=C(O)CCCCON=C(c1cccc(C(F)(F)F)c1)c1ncccn1`: the logP was found to be 2.77.
The compound `COc1cc(OC)nc(Oc2cccc(Oc3ccccc3)c2C(=O)O)n1` gave a logP of 3.43.
In turn, `CCC(C)C(NC(=O)C1CCCN1)C(=O)O` (stereo not drawn) (H-Pro-Ile-OH; configuration not given here) gave a logP of -2.56.
`Cc1ccc(CO)c(C=NNC(=O)c2cccc(Br)c2)c1O` showed a logP of 3.91.
As to `S=C=NCCCCc1ccccc1`, the logP is 4.
In the case of `O=S(=O)(NC(=S)N1CCCCC1)c1cnccc1NC1CCCCCC1` it was 4.15.
Take `CC(C)(O)C1CCC2(C)CCCC(=O)C2C1` (stereo unspecified): the logP came to 1.92.
Regarding `COc1ccccc1CNc1ncnc2nc[nH]c12`, the logP came out at 2.31.
For the compound `CCCCNC(=O)Cn1cccc(O)c1=O`, the logP was determined as 0.33.
In the case of `O=C(NC1CCCCCC1)NS(=O)(=O)c1cnccc1NC1CCCCCC1` it was 4.96; in that of `Cc1cccc(C)c1CCN`, 2.38; in that of `CCOC(=O)c1cccc(CN)c1`, 1.44.
As to `CC(C)CC(NC(=O)C(NC(=O)C(CC(C)C)NC(=O)C(N)C(C)C)C(C)C)C(=O)O` (stereo unspecified) (H-VLVL-OH; configuration not given here), the logP is -1.23.
`NC1=NCC(COc2cccc(Cl)c2)O1` (stereo unspecified) showed a logP of 2.09.
Consider `COc1ccc(C2Cc3cc(C(F)(F)F)ccc3N(CCN(C)C)C(=O)C2NC(C)=O)cc1` (stereo unspecified), for which the logP stood at 3.6.
Compound `CC(C)C1(C)N=C(c2ncc(-c3ccccc3)cc2C(=O)O)NC1=O` (stereo unspecified) gave a logP of 2.24.
In turn, `Fc1ccc(CNc2[nH]cnc3ncnc2-3)cc1` came in with a logP of 2.34.
The same measure for `COCOc1ccc(Cc2cccc(-c3c(O)c4ccc(Cl)cc4[nH]c3=O)c2)cc1`: 5.24.
In the case of `COc1nc(C)nc(Cl)c1NC1=NCCN1` it was 0.9.
Turning to `CN(C)CCOC(=O)c1ccc(S(C)(=O)=O)cc1`, the logP amounted to 0.45.
On to `CC(C)(C)Nc1nc(N)nc(O)n1`, for which the logP came to 2.07.
In the case of `Cc1cc2ccc(=O)oc2c2c(C)coc12` it was 2.88.
The compound `CCOc1ccc(NC(=O)OCCN2CCCCC2)cc1` had a logP of 3.41.
